Active and inactive are the calls of the source. The calls are words filed in the database; no cut-off is given here.
Assays:
RAW264.7 [1] = assay: Anti-inflammatory activity in mouse RAW264.7 cells assessed as remaining LPS-induced NO production at 40 uM preincubated for 1 hr followed by LPS addition and measured after 24 hrs by Griess reagent-based assay relative to control; format: functional
[2] = Cytotoxicity against LPS-induced mouse RAW264.7 cells assessed as cell viability at 1 uM incubated for 24 hrs by MTT assay relative to control; format: cell-based; details: LPS-induced RAW264.7 cells, read-out: Activity
RAW264.7 [3] = assay: Anti-inflammatory activity in mouse RAW264.7 cells assessed as inhibition of LPS-induced NO production at 1 uM preincubated for 1 hr followed by LPS addition and measured after 24 hrs by Griess reagent-based assay relative to control; format: functional
RAW264.7 [4] = assay: Anti-inflammatory activity in mouse RAW264.7 cells assessed as inhibition of LPS-induced PGE2 production at 1 uM preincubated for 1 hr followed by LPS addition and measured after 24 hrs by EIA relative to control; format: functional
RAW264.7 [5] = assay: Anti-inflammatory activity in mouse RAW264.7 cells assessed as inhibition of LPS-induced PGE2 production preincubated for 1 hr followed by LPS addition and measured after 24 hrs by EIA; format: functional, cell-based
RAW264.7 [6] = assay: Anti-inflammatory activity in mouse RAW264.7 cells assessed as inhibition of LPS-induced PGE2 production at 40 nM preincubated for 1 hr followed by LPS addition and measured after 24 hrs by EIA; format: functional, cell-based
RAW264.7 [7] = assay: Anti-inflammatory activity in mouse RAW264.7 cells assessed as inhibition of LPS-induced IL-6 production at 1 uM preincubated for 1 hr followed by LPS addition and measured after 24 hrs by EIA relative to control; format: functional
RAW264.7 [8] = assay: Anti-inflammatory activity in mouse RAW264.7 cells assessed as inhibition of LPS-induced TNFalpha production at 1 uM preincubated for 1 hr followed by LPS addition and measured after 24 hrs by EIA relative to control; format: functional
RAW264.7 [9] = assay: Anti-inflammatory activity in mouse RAW264.7 cells assessed as inhibition of LPS-induced IL-1beta production at 1 uM preincubated for 1 hr followed by LPS addition and measured after 24 hrs by EIA relative to control; format: functional
[10] = molecular target: Mitogen-activated protein kinase 14 (Mus musculus) (UniProt P47811); assay: Inhibition of p38alpha MAPK in LPS-stimulated mouse RAW264.7 cells assessed as reduction in MK2 phosphorylation at 5 uM incubated for 120 mins by Western blot analysis; format: cell-based
RAW264.7 [11] = assay: Effect on NO production in mouse RAW264.7 cells assessed as inhibition of NO production at 2 to 5 uM incubated for 24 hrs by Griess reagent-based assay; format: cell-based; details: raw264.7, 24 h
RAW264.7 [12] = assay: Anti-inflammatory activity in mouse RAW264.7 cells assessed as inhibition of LPS-induced NO production at 0.5 uM preincubated for 1 hr followed by LPS addition and measured after 24 hrs by Griess reagent-based assay; format: functional, cell-based
RAW264.7 [13] = assay: Anti-inflammatory activity in mouse RAW264.7 cells assessed as inhibition of LPS-induced NO production preincubated for 1 hr followed by LPS addition and measured after 24 hrs by Griess reagent-based assay; format: functional, cell-based
RAW264.7 [14] = assay: Anti-inflammatory activity in mouse RAW264.7 cells assessed as inhibition of LPS-induced PGE2 production at 0.2 uM preincubated for 1 hr followed by LPS addition and measured after 24 hrs by EIA; format: functional, cell-based
RAW264.7 [15] = assay: Anti-inflammatory activity in mouse RAW264.7 cells assessed as inhibition of LPS-induced IL-6 production preincubated for 1 hr followed by LPS addition and measured after 24 hrs by EIA; format: functional, cell-based
RAW264.7 [16] = assay: Anti-inflammatory activity in mouse RAW264.7 cells assessed as inhibition of LPS-induced IL-6 production at 0.5 uM preincubated for 1 hr followed by LPS addition and measured after 24 hrs by EIA; format: functional, cell-based
RAW264.7 [17] = assay: Anti-inflammatory activity in mouse RAW264.7 cells assessed as inhibition of LPS-induced IL-6 production at 1 to 5 uM preincubated for 1 hr followed by LPS addition and measured after 24 hrs by EIA; format: functional, cell-based
RAW264.7 [18] = assay: Effect on IL-6 production in mouse RAW264.7 cells assessed as increase in IL-6 production up to 5 uM measured after 1 hr by EIA; format: ADME, cell-based; details: raw264.7, 1 h
RAW264.7 [19] = assay: Anti-inflammatory activity in mouse RAW264.7 cells assessed as inhibition of LPS-induced TNFalpha production preincubated for 1 hr followed by LPS addition and measured after 24 hrs by EIA; format: functional, cell-based
RAW264.7 [20] = assay: Anti-inflammatory activity in mouse RAW264.7 cells assessed as inhibition of LPS-induced TNFalpha production at 0.5 uM preincubated for 1 hr followed by LPS addition and measured after 24 hrs by EIA; format: functional, cell-based
RAW264.7 [21] = assay: Effect on TNF-alpha production in mouse RAW264.7 cells assessed as increase in TNFalpha production at up to 5 uM measured after 1 hr by EIA; format: ADME, cell-based; details: raw264.7, 1 h
RAW264.7 [22] = assay: Anti-inflammatory activity in mouse RAW264.7 cells assessed as inhibition of LPS-induced PGE2 production at 10 nM preincubated for 1 hr followed by LPS addition and measured after 24 hrs by EIA relative to control; format: functional
[23] = molecular target: Mitogen-activated protein kinase 14 (Mus musculus) (UniProt P47811); assay: Inhibition of p38alpha MAPK in LPS-stimulated mouse RAW264.7 cells assessed as reduction in p38alpha MAPK phosphorylation at 4 uM incubated for 60 mins by Western blot analysis; format: cell-based
[24] = molecular target: Mitogen-activated protein kinase 14 (Mus musculus) (UniProt P47811); assay: Inhibition of p38alpha MAPK in LPS-stimulated mouse RAW264.7 cells assessed as reduction in p38alpha MAPK phosphorylation incubated for 60 mins by Western blot analysis; format: cell-based
[25] = molecular target: Mitogen-activated protein kinase 14 (Mus musculus) (UniProt P47811); assay: Inhibition of p38alpha MAPK in LPS-stimulated mouse RAW264.7 cells assessed as reduction in p38alpha MAPK phosphorylation at 2 uM incubated for 60 mins by Western blot analysis; format: cell-based
[26] = molecular target: T1, Mitogen-activated protein kinase 14 (Mus musculus, UniProt P47811); assay: Inhibition of p38alpha MAPK in unstimulated mouse RAW264.7 cells assessed as reduction in p38alpha MAPK phosphorylation at 4 uM incubated for 60 mins by Western blot analysis; format: cell-based; details: RAW264.7, mouse, 1 h
[27] = molecular target: T1, Mitogen-activated protein kinase 14; assay: Inhibition of p38alpha MAPK in unstimulated mouse RAW264.7 cells assessed as reduction in p38alpha MAPK phosphorylation at 2 uM incubated for 60 mins by Western blot analysis; format: cell-based; details: raw264.7, 1 h
[28] = molecular target: Mitogen-activated protein kinase 14 (Mus musculus) (UniProt P47811); assay: Inhibition of p38alpha MAPK in LPS-stimulated mouse RAW264.7 cells assessed as reduction in p38alpha MAPK phosphorylation at 5 uM incubated for 60 mins by Western blot analysis; format: cell-based
[29] = molecular target: Mitogen-activated protein kinase 14 (Mus musculus) (UniProt P47811); assay: Inhibition of p38alpha MAPK in LPS-stimulated mouse RAW264.7 cells assessed as reduction in MK2 phosphorylation at 5 uM by Western blot analysis; format: cell-based; details: TDE = time-dependent effect

Sequence of Mitogen-activated protein kinase 14 (Mus musculus) (P47811 whole entry): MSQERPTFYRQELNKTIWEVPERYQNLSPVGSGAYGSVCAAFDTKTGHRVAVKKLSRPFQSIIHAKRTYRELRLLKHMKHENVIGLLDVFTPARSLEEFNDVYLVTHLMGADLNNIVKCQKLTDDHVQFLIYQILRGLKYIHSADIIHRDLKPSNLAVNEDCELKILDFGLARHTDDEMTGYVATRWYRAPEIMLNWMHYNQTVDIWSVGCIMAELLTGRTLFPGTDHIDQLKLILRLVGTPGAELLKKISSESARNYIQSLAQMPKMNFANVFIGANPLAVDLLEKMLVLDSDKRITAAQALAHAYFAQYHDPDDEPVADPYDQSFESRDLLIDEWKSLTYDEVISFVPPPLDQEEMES
T1 sequence (P47811 whole entry): as above

SMILES	viability at 24 h, 1 µM [2] [%]	inhibition at 1 µM (RAW264.7 [3]) [%]	inhibition at 1 µM (RAW264.7 [4]) [%]	IC50 (RAW264.7 [5]) [nM]	inhibition (RAW264.7 [5])	inhibition (RAW264.7 [6])	inhibition at 1 µM (RAW264.7 [7]) [%]	inhibition at 1 µM (RAW264.7 [8]) [%]	inhibition at 1 µM (RAW264.7 [9]) [%]	Activity (RAW264.7 [11])	inhibition (RAW264.7 [12])	IC50 (RAW264.7 [13]) [nM]	inhibition (RAW264.7 [13])	inhibition (RAW264.7 [14])	inhibition (RAW264.7 [15])	inhibition (RAW264.7 [17])	Activity (RAW264.7 [18])	inhibition (RAW264.7 [19])	inhibition (RAW264.7 [20])	Activity (RAW264.7 [21])	other results
CC(=N)NCCCC[C@H](N)C(=O)O [L-NIL]	–	–	–	–	–	–	–	–	–	–	–	–	–	–	–	–	–	–	–	–	Activity (RAW264.7 [1]): 29 - 35%
COc1ccccc1C(=O)Nc1cccc(-c2cc(=O)c3c(O)c(OC)c(OC)cc3o2)c1	90.9	2.62	82.8	310	Dose-dependent effect	Active	-9.4	-9.74	41.3	–	–	–	–	–	–	–	–	–	–	–	inhibition [10]: Active
COc1cc(NC(=O)c2cccc(-c3cc(=O)c4c(OC)c(OC)c(OC)cc4o3)c2)cc(OC)c1OC	113	48.3	11.2	3400	Dose-dependent effect	–	31.9	28.6	143	Non-Toxic	inactive	2750	Dose-dependent effect	inactive	Dose-dependent effect	Active	Non-Toxic	Dose-dependent effect	Active	Non-Toxic	inhibition (RAW264.7 [16]): Active
CS(=O)(=O)Nc1ccc([N+](=O)[O-])cc1OC1CCCCC1 [NS-398]	–	–	–	–	–	–	–	–	–	–	–	–	–	–	–	–	–	–	–	–	inhibition at 0.01 µM (RAW264.7 [22]): 58%
COc1cc(NC(=O)c2cccc(-c3cc(=O)c4c(O)c(OC)c(OC)cc4o3)c2)cc(OC)c1OC	144	44.8	35.7	980	Dose-dependent effect	–	53.5	29.4	41	Non-Toxic	Active	2110	Dose-dependent effect	inactive	Dose-dependent effect	Active	Non-Toxic	Dose-dependent effect	Active	Non-Toxic	inhibition [23]: 100%; inhibition [24]: Dose-dependent effect; inhibition [25]: Active; inhibition at 4 µM [26]: 100%; inhibition (INH) [27]: Active
COc1ccccc1C(=O)Nc1ccc(-c2cc(=O)c3c(OC)c(OC)c(OC)cc3o2)cc1	108	7.04	78.8	590	Dose-dependent effect	Active	-50	-51.3	14.5	–	–	–	–	–	–	–	–	–	–	–	inhibition [28]: Active; inhibition [29]: Tde
